{"source": "patent US20100056606A1", "about": "“Combination therapy using budesonide and antisense oligonucleotide targeted to IL4-receptor alpha” (ISIS Pharmaceuticals, Inc., priority 2005, published 2010)", "key": {"OVA sensitized mice [1]": {"tested_on": "OVA sensitized mice", "test": "Ovalbumin induced allergic inflammation, acute model (AHR/Penh, BAL eosinophils)", "assay_type": "in vivo, mouse", "conditions": "for % Eosinophils (BAL) / Penh (100 mg/mL methacholine): day 28", "procedure": "In the mouse model of allergic inflammation, mice are sensitized and challenged with aerosolized chicken ovalbumin (OVA). Airway responsiveness is assessed by inducing airflow obstruction using a noninvasive method whereby unrestrained conscious OVA sensitized mice are placed into the main chamber of a plethysmograph (Buxco Electronics, Inc. Troy, N.Y.) and challenged with aerosolized methacholine. Pressure difference between this chamber and a reference chamber is used to extrapolate minute volume, breathing frequency and enhanced pause (Penh). Penh is a dimensionless parameter that is a function of total pulmonary airflow (i.e. the sum of the airflow in the upper and lower respiratory tracts) during the respiratory cycle of a mouse and is […] when airflow is greater. This parameter closely correlates with lung resistance as measured by traditional, invasive techniques using ventilated animals (Hamelmann et al., 1997, Am. J. Respir. Crit. Care Med. 156:766-775).\nThe mouse model of allergic inflammation was used to test the efficacy of an inhaled antisense oligonucleotide targeted to mouse IL-4R alpha. A mismatched IL-4R alpha oligonucleotide (mismatch control oligonucleotide) was used as a negative control. Male Balb/c mice 8-10 weeks old (Charles River Laboratory, Taconic Farms, N.Y.) were maintained in micro-isolator cages housed in a specific pathogen free (SPF) facility. The sentinel cages within the animal colony surveyed negative for viral antibodies and the presence of known mouse pathogens.\nFor the acute model of allergic inflammation, mice were sensitized with 20 μg of alum-precipitated OVA was injected intraperitoneally on days 0 and 14. On days 24, 25 and 26, animals were exposed for 20 minutes to 1% OVA (in saline) by ultrasonic nebulization. On days 17, 19, 21, 24 and 26 animals were dosed with vehicle alone (saline), 1 μg/kg or 10 μg/kg of ISIS 231894 or the mismatch control oligonucleotide. Oligonucleotides or vehicle were suspended in 0.9% sodium chloride and delivered via inhalation using a nose-only aerosol delivery exposure system. A Lovelace nebulizer set at a flow rate of 1.4 liter per minute feeding into a total flow rate of 10 liters per minute was used to deliver the oligonucleotide. The exposure chamber was equilibrated with an oligonucleotide aerosol solution for 5 minutes before mice were placed in a restraint tube attached to the chamber. Restrained mice were treated for a total of 10 minutes. Analysis was performed on day 28.\nDendritic cells, eosinophils, macrophages and epithelial cells recovered from collagenase digested lung were analyzed for expression of IL-4R alpha protein by flow cytometry. […] A second experiment, in which mice were dosed with 10 μg/kg ISIS 231894, confirmed the efficacy of ISIS 231894 to decrease AHR and eosinophilia in the acute model."}, "[2]": {"conditions": "mouse, in vivo"}, "IL-4R alpha protein": {"tested_on": "IL-4R alpha protein", "test": "IL-4R alpha protein on lung cells by flow cytometry, rechallenge model", "assay_type": "in vivo, mouse", "procedure": "The rechallenge model of allergic inflammation includes a second series of nebulized OVA challenges on days 66 and 67 in addition to the sensitization and challenge steps of the acute model. This model allows for the evaluation of the target's role in a recall response, as opposed to its role as an initiator molecule. In the rechallenge model, mice were treated with 10, 100 or 500 μg/kg of either ISIS 231894 or the mismatch control oligonucleotide on days 52, 54, 56, 59 and 61, subsequent to the onset and resolution of the OVA-induced acute inflammatory response, delivered by nose only inhalation. The study endpoints were similar to those in the acute model, and included Penh response (i.e. AHR reduction), inflammatory cells and cytokines in BAL (determined by ELISA), mucus accumulation (as determined by periodic acid-Schiff base [PAS] staining in lungs), lung histology and IL-4R alpha protein reduction in lung epithelial and inflammatory cells (as determined by flow cytometry). The results are shown below in Tables 5 and 6."}, "OVA sensitized mice [3]": {"tested_on": "OVA sensitized mice", "test": "Allergic rhinitis mouse model, intranasal administration", "assay_type": "in vivo", "procedure": "In a mouse model of allergic rhinitis, animals were sensitized intraperitoneally with alum-precipitated OVA on days 1, 5, 10 and 15. OVA diluted with saline was administered intranasally (25 μL of 500 μg OVA in each nare) daily, on days 18-22, 25-29, and 32-35. ISIS 231894 and budesonide were administered intranasally, with budesonide administration one hour before each intranasal OVA challenge. ISIS 231894 was administered on days 11, 13, 15, and one hour before each intranasal OVA challenge. Endpoints were evaluated on day 36 and included nasal mucus accumulation (nasal histopathology) nasal eosinophilia, neutrophilia (by nasal lavage analysis and microscopic eosinophil counts in epithelial tissue) and allergic symptoms (numbers of sneezes and nose-rubs observed over a fixed time period)."}, "OVA sensitized mice [4]": {"tested_on": "OVA sensitized mice", "test": "Acute allergic inflammation mouse model with inhaled budesonide and/or ISIS 231894", "assay_type": "in vivo", "conditions": "1 μg/kg ISIS 231894 alone (Table 9)", "protocol": "In the mouse model of allergic inflammation, mice are sensitized and challenged with aerosolized chicken ovalbumin (OVA). Airway responsiveness is assessed by inducing airflow obstruction using a noninvasive method whereby unrestrained conscious OVA sensitized mice are placed into the main chamber of a plethysmograph (Buxco Electronics, Inc. Troy, N.Y.) and challenged with aerosolized methacholine. Pressure difference between this chamber and a reference chamber is used to extrapolate minute volume, breathing frequency and enhanced pause (Penh). Penh is a dimensionless parameter that is a function of total pulmonary airflow (i.e. the sum of the airflow in the upper and lower respiratory tracts) during the respiratory cycle of a mouse and is lower when airflow is greater.\nThe acute mouse model of allergic inflammation was used to determine if co-administration of inhaled IL-4R alpha antisense oligonucleotide would enhance the activity of inhaled budesonide, or reduce the dose required to produce anti-inflammatory activity. As described in Example 6, mice were sensitized with alum-precipitated OVA at day 0 and day 14 and nebulized with OVA in saline on days 24, 25 and 26. All mice were analyzed on day 28. Budesonide (0.3, 3, 30, and 300 μg/kg dissolved in PBS Containing 20% DMSO) was administered by nose-only aerosol exposure beginning on day 23 (24 and 20 hours before OVA exposure) and then daily through day 26, one hour prior to daily OVA exposure. The 30 μg/kg dose was also administered twice a day (bid) from day 23-26 as a separate group. As in Example 6, ISIS 231894 was administered by nose-only aerosol exposure at day 17, 19, 21, 23 and 26.\nThe effect of budesonide and/or ISIS 231894 treatment on AHR, BAL eosinophil infiltration and mucus accumulation (number of PAS-positive airways) were determined."}, "[5]": {"test": "Lung concentration, lung half life and tolerability of inhaled oligonucleotide in mice"}, "[6]": {"conditions": "Table 11, 0.01 mg/kg intranasal"}}, "data": [{"substance": "ISIS 231894: lead antisense oligonucleotide targeted to mouse IL-4R alpha; CCGCTGTTCTCAGGTGACAT; SEQ ID NO: 24; 2'-MOE gapmer, phosphorothioate (all phosphorothioate, sugars by position and methylation of C not given here; 2'-MOE gapmer)", "values": [{"measurement": "eosinophil infiltration in BAL fluid, in words", "setting": "OVA sensitized mice [1]", "value": "significant decrease"}, {"measurement": "pulmonary function: lung resistance and compliance, in words", "setting": "OVA sensitized mice [1]", "value": "Significant improvement"}, {"measurement": "% Eosinophils (BAL)", "setting": "OVA sensitized mice [1]; 1 μg/kg inhaled", "value": 35, "unit": "%"}, {"measurement": "Penh (100 mg/mL methacholine)", "setting": "OVA sensitized mice [1]; 1 μg/kg inhaled", "value": 6}, {"measurement": "% Eosinophils (BAL)", "setting": "OVA sensitized mice [1]; 10 μg/kg inhaled", "value": 35, "unit": "%"}, {"measurement": "Penh (100 mg/mL methacholine)", "setting": "OVA sensitized mice [1]; 10 μg/kg inhaled", "value": 4.5}, {"measurement": "methacholine-induced AHR (Penh, whole body plethysmography), in words", "setting": "OVA sensitized mice [1]; 1 and 10 μg/kg inhaled", "value": "significant, dose dependent suppression"}, {"measurement": "half life in the lung", "setting": "[2]", "value": "2 to 4", "unit": "days"}, {"measurement": "target protein (IL-4R alpha), Dendritic cells", "setting": "IL-4R alpha protein; 10 μg/kg inhaled", "value": 25, "unit": "% positive cells"}, {"measurement": "target protein (IL-4R alpha), Macrophages/Eosinophils", "setting": "IL-4R alpha protein; 10 μg/kg inhaled", "value": 18, "unit": "% positive cells"}, {"measurement": "target protein (IL-4R alpha), Dendritic cells", "setting": "IL-4R alpha protein; 100 μg/kg inhaled", "value": 18, "unit": "% positive cells"}, {"measurement": "target protein (IL-4R alpha), Macrophages/Eosinophils", "setting": "IL-4R alpha protein; 100 μg/kg inhaled", "value": 20, "unit": "% positive cells"}, {"measurement": "target protein (IL-4R alpha), Dendritic cells", "setting": "IL-4R alpha protein; 500 μg/kg inhaled", "value": 10, "unit": "% positive cells"}, {"measurement": "target protein (IL-4R alpha), Macrophages/Eosinophils", "setting": "IL-4R alpha protein; 500 μg/kg inhaled", "value": 17, "unit": "% positive cells"}, {"measurement": "IL-4R alpha surface expression on lung eosinophils, macrophages and dendritic cells, in words", "setting": "IL-4R alpha protein; flow cytometry", "value": "reduced the amount of IL-4R alpha surface expression"}, {"measurement": "% Nasal lavage eosinophils", "setting": "OVA sensitized mice [3]; [6]", "value": 12, "unit": "%"}, {"measurement": "% Nasal lavage neutrophils", "setting": "OVA sensitized mice [3]; [6]", "value": 16, "unit": "%"}, {"measurement": "Nasal rubs", "setting": "OVA sensitized mice [3]; [6]", "value": 0.8, "unit": "per 5 min"}, {"measurement": "Sneezes", "setting": "OVA sensitized mice [3]; [6]", "value": 2.5, "unit": "per 5 min"}, {"measurement": "Tissue eosinophils", "setting": "OVA sensitized mice [3]; [6]", "value": 438, "unit": "per mm^2"}, {"measurement": "% Nasal lavage eosinophils", "setting": "OVA sensitized mice [3]; Table 11, 0.1 mg/kg intranasal", "value": 2, "unit": "%"}, {"measurement": "% Nasal lavage neutrophils", "setting": "OVA sensitized mice [3]; Table 11, 0.1 mg/kg intranasal", "value": 5, "unit": "%"}, {"measurement": "Nasal rubs", "setting": "OVA sensitized mice [3]; Table 11, 0.1 mg/kg intranasal", "value": 0.3, "unit": "per 5 min"}, {"measurement": "Sneezes", "setting": "OVA sensitized mice [3]; Table 11, 0.1 mg/kg intranasal", "value": 1.9, "unit": "per 5 min"}, {"measurement": "Tissue eosinophils", "setting": "OVA sensitized mice [3]; Table 11, 0.1 mg/kg intranasal", "value": 240, "unit": "per mm^2"}, {"measurement": "% Nasal lavage eosinophils", "setting": "OVA sensitized mice [3]; Table 11, 1 mg/kg intranasal", "value": 5, "unit": "%"}, {"measurement": "% Nasal lavage neutrophils", "setting": "OVA sensitized mice [3]; Table 11, 1 mg/kg intranasal", "value": 13, "unit": "%"}, {"measurement": "Nasal rubs", "setting": "OVA sensitized mice [3]; Table 11, 1 mg/kg intranasal", "value": 0.5, "unit": "per 5 min"}, {"measurement": "Sneezes", "setting": "OVA sensitized mice [3]; Table 11, 1 mg/kg intranasal", "value": 1.0, "unit": "per 5 min"}, {"measurement": "Tissue eosinophils", "setting": "OVA sensitized mice [3]; Table 11, 1 mg/kg intranasal", "value": 101, "unit": "per mm^2"}, {"measurement": "% Nasal lavage eosinophils", "setting": "OVA sensitized mice [3]; Table 11, 10 mg/kg intranasal", "value": 9, "unit": "%"}, {"measurement": "% Nasal lavage neutrophils", "setting": "OVA sensitized mice [3]; Table 11, 10 mg/kg intranasal", "value": 14, "unit": "%"}, {"measurement": "Nasal rubs", "setting": "OVA sensitized mice [3]; Table 11, 10 mg/kg intranasal", "value": 1.1, "unit": "per 5 min"}, {"measurement": "Sneezes", "setting": "OVA sensitized mice [3]; Table 11, 10 mg/kg intranasal", "value": 4.8, "unit": "per 5 min"}, {"measurement": "Tissue eosinophils", "setting": "OVA sensitized mice [3]; Table 11, 10 mg/kg intranasal", "value": 298, "unit": "per mm^2"}, {"measurement": "nasal eosinophilia, neutrophilia and allergic symptoms (sneezes and nose rubs), in words", "setting": "OVA sensitized mice [3]; allergic rhinitis model, intranasal, alone and in combination", "value": "reduce nasal eosinophilia, neutrophilia and allergic symptoms"}, {"measurement": "% Eosinophils (BAL)", "setting": "OVA sensitized mice [4]", "value": 27, "unit": "%"}, {"measurement": "PAS+ airways (mucus accumulation)", "setting": "OVA sensitized mice [4]", "value": 21}, {"measurement": "Penh (100 mg/mL methacholine)", "setting": "OVA sensitized mice [4]", "value": 6.2}, {"measurement": "effect of once weekly dosing on AHR and airway inflammation, in words", "setting": "[5]; mice with well established allergen-induced pulmonary inflammation", "value": "reduced AHR and airway inflammation"}, {"measurement": "tolerability of intrapulmonary aerosol doses", "setting": "[5]; mice, doses up to 1 mg/kg", "value": "well-tolerated"}]}]}
